Data from patent US20090298825A1, “Bicycloheteroaryl Compounds as P2x7 Modulators and Uses Thereof” (priority 2006, published 2009).

How the values were obtained:
[1] = Half-life in human liver microsomes (HLM); format: in vitro ADME; details: pH 7.4, 1 μM compound, 0.78 mg/mL HLM, NADPH, 37° C.
Protocol: Test compounds (1 μM) are incubated with 3.3 mM MgCl2 and 0.78 mg/mL HLM (HL101) in 100 mM potassium phosphate buffer (pH 7.4) at 37° C. on the 96-deep well plate. The reaction mixture is split into two groups, a non-P450 and a P450 group. NADPH is only added to the reaction mixture of the P450 group. An aliquot of samples of P450 group is collected at 0, 10, 30, and 60 min time point, where 0 min time point indicated the time when NADPH is added into the reaction mixture of P450 group. An aliquot of samples of non-P450 group is collected at −10 and 65 min time point. Collected aliquots are extracted with acetonitrile solution containing an internal standard. The precipitated protein is spun down in centrifuge (2000 rpm, 15 min). The compound concentration in supernatant is measured by LC/MS/MS system.
The half-life value is obtained by plotting the natural logarithm of the peak area ratio of compounds/internal standard versus time. The slope of the line of best fit through the points yields the rate of metabolism (k).

P2X7 receptor = molecular target: T1, P2X7 receptor (Homo sapiens, UniProt Q99572); test: IL-1β release assay in differentiated THP-1 cells stimulated with BzATP (Example 9); format: cell-based; details: for inhibition at 0.3 µM: 0.3 μM concentration, read-out: IL-1β % Inhib. @ 0.3 or 0.1 μM; for IC50: four parameter logistic fit, read-out: IL-1β IC50
T1 construct: endogenous in cells; host or cells: THP-1 cells differentiated with LPS and IFN-γ
T1 sequence (Q99572 1-595): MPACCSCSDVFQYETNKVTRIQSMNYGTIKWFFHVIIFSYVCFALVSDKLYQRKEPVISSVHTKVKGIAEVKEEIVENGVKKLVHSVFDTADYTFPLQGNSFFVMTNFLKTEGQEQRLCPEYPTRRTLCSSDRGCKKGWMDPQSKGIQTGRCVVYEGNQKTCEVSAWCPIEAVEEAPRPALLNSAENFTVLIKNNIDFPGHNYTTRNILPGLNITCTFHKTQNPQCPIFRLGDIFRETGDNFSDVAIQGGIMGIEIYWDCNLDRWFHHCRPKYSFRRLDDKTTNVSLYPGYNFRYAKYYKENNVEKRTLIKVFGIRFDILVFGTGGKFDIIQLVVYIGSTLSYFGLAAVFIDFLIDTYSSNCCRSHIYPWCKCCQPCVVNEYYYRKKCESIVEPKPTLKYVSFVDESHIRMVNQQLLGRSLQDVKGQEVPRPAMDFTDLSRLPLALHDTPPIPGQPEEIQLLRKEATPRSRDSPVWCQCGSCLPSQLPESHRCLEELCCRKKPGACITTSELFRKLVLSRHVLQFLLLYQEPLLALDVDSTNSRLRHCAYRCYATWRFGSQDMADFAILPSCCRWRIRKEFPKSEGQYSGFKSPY
Outline: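 Differentiated THP-1 cells pretreated 30 min with compound, then stimulated with BzATP. Released IL-1β in supernatant measured by ELISA; background-adjusted percent inhibition fitted to four-parameter logistic for IC50.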

SMILES	half-life at 1 μM [1] [h]	inhibition at 0.3 µM (P2X7 receptor) [%]	IC50 (P2X7 receptor) [nM]
CC1(C)CC(CC(=O)Nc2cccc3c(=O)n([C@@H]4CCNC4)ccc23)CC(C)(C)C1 [ID 830]	5.59	> 76	–
Cc1ncccc1-n1ccc2c(NC(=O)Cc3ccc(C(F)(F)F)c(F)c3)cccc2c1=O [ID 855]	0.73	> 76	11
O=C(Cc1ccc(C(F)(F)F)c(F)c1)Nc1cccc2c(=O)n(-c3cccnc3F)ccc12 [ID 871]	1.08	> 76	8.72
O=C(Cc1ccc(F)c(C(F)(F)F)c1)Nc1cccc2c(=O)n(C3CC3)ccc12 [ID 884]	0.77	> 76	5.37
Cc1ccc(-n2ccc3c(NC(=O)CC45CC6CC(CC(C6)C4)C5)cccc3c2=O)cn1 [ID 715]	0.42	> 76	4.02
Cc1ncccc1-n1ccc2c(NC(=O)Cc3ccc(Cl)c(C(F)(F)F)c3)cccc2c1=O [ID 861]	0.49	> 76	4
O=C(Cc1ccc(Cl)c(C(F)(F)F)c1)Nc1cccc2c(=O)n(C3CNCC3O)ccc12 (centres unmarked) [ID 826]	1.85	> 76	2.44
C[C@H](C(=O)Nc1cccc2c(=O)n(C3CNCC3O)ccc12)c1ccc(Cl)cc1 (some centres unmarked) [ID 829]	1.54	> 76	19.9
C[C@@H](C(=O)Nc1cccc2c(=O)n([C@H]3CCNC3)ccc12)c1ccc(Cl)c(Cl)c1 [ID 833]	3.62	> 76	35
O=C(Cc1ccc(Cl)cc1F)Nc1cccc2c(=O)n(C3CC3)ccc12 [ID 883]	0.54	> 76	14.7
O=C(Cc1ccc(Cl)c(C(F)(F)F)c1)Nc1cccc2c(=O)n(C3CCNC3)ccc12 (centres unmarked) [ID 814]	2.88	> 76	15.9
COc1ncccc1-n1ccc2c(NC(=O)Cc3ccc(Cl)c(C(F)(F)F)c3)cccc2c1=O [ID 847]	0.22	> 76	9.37
O=C(CC1CCCCCC1)Nc1cccc2c(=O)n(C3CNCC3O)ccc12 (centres unmarked) [ID 828]	1.38	> 76	6.87
O=C(Cc1ccc(Cl)c(C(F)(F)F)c1)Nc1cccc2c(=O)n([C@H]3CCNC3)ccc12 [ID 825]	4.27	> 76	16.4
